Reference: publication PMC8362126, “Proteolysis Targeting Chimera (PROTAC) for Macrophage Migration Inhibitory Factor (MIF) Has Anti‐Proliferative Activity in Lung Cancer Cells” (Angewandte Chemie (International Ed. in English), 2021)
Values joined by “and” are separate entries in the source; they are usually repeats but may differ in a detail not shown here. Identical values can stand only once. “Also recorded” adds a separate entry of the source.

Experiments:
A549 cell spheroids = test: 3D tumor spheroid assay; type: cell-based, human; conditions: 12 days; for influence on spheroid tumor growth: 5 μM
Experimental: A 3D spheroid model was employed to investigate the effect of longer term MD13 treatment in a more complex model for tumor growth. The 3D spheroid model was established using A549 cancer cells by a method adapted from Feng et al.[48] The spheroids were grown over a 12‐day period in absence or presence of PROTAC MD13. Each spheroid was prepared from about 1000 A549 cells. After three‐day incubation, these spheroids were treated with 1, 2, or 5 μM of MD13 with 72 hours intervals over 12 days. Spheroid growth was monitored by measuring the diameter and this was compared to day 0 of the treatment. The tumor spheroids in MD13 treated groups were significant smaller compared to the control group (Figure 5 B and Figure S9). With continuous exposure to 1, 2, or 5 μM of MD13 for 12 days, the growth of the spheroid tumor volume was inhibited by 42 %, 53 %, and 81 % compared with control group, respectively. […]
Tumor spheroid assay. A549 cells (1000 cells/well) were seeded onto a 96-well round-bottomed ultra low attachment plate (Corning). After 2 days of incubation without disturbance, the spheroid was treated with indicated compound every 3 days. […]
(1 picture or pasted object on this page, not shown here) […]
inverted microscope (Nikon Eclipse Ti) connected with a NIS-elements software. The data were analyzed and plotted with Graphpad Prism8. […]
cells were seeded in an ultralow attachment 96-well round-bottomed plate (1000 cells/well) to generate tumor spheroids (a single spheroid per well). After initiation, the spheroids were treated with different compounds at the indicated concentrations every three days. DMSO was used as vehicle control. The day of the first treatment was indicated as day 0. (A) Representative images were obtained at the indicated intervals using an inverted microscope. Scale bar: 500 μm. (B) Analysis was carried out using NIS-Elements AR 3.1 software, and growth curves were obtained relative to the untreated spheroids (day 0) and plotted with GraphPad Prism 8. Values are shown as means ± SD (n = 3 spheroids/time point, **p < 0.01 vs control). […]

A549 cells = test: Cell cycle analysis by flow cytometry (propidium iodide); type: cell-based, human; conditions: 48 h; for proportion of cells at the G2/M phase: control group 12 %
Experimental: The effect of MIF‐directed PROTAC MD13 on cell cycle progression was further analyzed using flow cytometry (Figure 6). A549 cells were treated with MD13 at concentrations of 1, 2, or 5 μM for the duration of 48 h before analysis using flow cytometry. […] The proportion of cells at the G2/M phase is 12 % for the control group. This percentage increases to 17 %, 19 %, and 23 % upon treatment with 1, 2, and 5 μM MD13, respectively. […]
Flow cytometry. For cell cycle analysis, A549 cells were seeded in 6 -well plates at a density of 1x10^5 per well. The next day, the cells were treated with the appropriate compound or vehicle for 48h. Subsequently, the cells were washed with PBS (3 ×) and then harvested after trypinzation. After centrifugation at 300g, the cells were incubated with a solutio n containing 20 µg/ml propidium iodide (PI) (Sigma, P4864) and 0.1% (v/v) Triton -X100 (Sigma, T8787) for 15 min at room temperature. Fluorescence was detected by a Cytoflex flow cytometer […]
(1 picture or pasted object on this page, not shown here)
(Beckman Coulter, Woerden, the Netherlands) immediately. 30,000 cells were collected for each sample. Data were analyzed using FlowJo software (Tree start, Ashland, USA). […]

MIF [1] = biological target: T1, MIF (Homo sapiens, UniProt P14174); test: MIF degradation in A549 cells, western-blot; type: cell-based; design: endogenous in cells; host or cells: A549 (ATCC CCL-185)
T1 sequence (P14174 2-115 limits assumed): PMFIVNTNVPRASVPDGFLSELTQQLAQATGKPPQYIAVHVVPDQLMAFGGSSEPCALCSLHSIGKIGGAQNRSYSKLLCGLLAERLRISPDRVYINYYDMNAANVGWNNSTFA
Experimental: The concentration dependence of PROTAC MD13‐mediated induction of MIF degradation in A549 cells was investigated using western‐blot. […] The MIF levels were normalized to the vehicle treated control and plotted to the respective MD13 concentrations. This provided a DC50 of around 100 nM and a maximal degradation of around 90–95 % at concentrations higher than 1 μM (Figure 3 B). The DC50 of MD13 measured by ELISA assay was about 200 nM (Figure 3 C), which is in line with the result from western‐blot. […]
Cell lysates were prepared using the protocol described above. About 10−40 μg of total protein was mixed with the 4× Laemmli Loading Dye (250 mM Tris, pH 6.8, 40% glycerol, 5% SDS, 0.005% bromophenol blue, 4% β-mercaptoethanol) and heated at 95−100 °C for 5 min and loaded onto a 12% Bis-Tris gel (Bio-Rad Laboratories, #4561084) and proteins were separated at 120V. Afterwards, proteins were transferred to polyvinylidene fluoride (PVDF) membranes, subsequently non-specific antibody binding was blocked with 5% nonfat dry milk (BIO-RAD, #1706404) in TBST buffer and incubated overnight at 4 °C with one of the following primary antibodies: anti-MIF (1:1000, ThermoFisher, #PA5-27343 ) or anti-β-actin (1:10000 Cell Signalling, #8457). The membranes were further incubated with a goat anti-rabbit HRP-conjugated secondary antibody (1:2000, DAKO, p0448) for 2 h at room temperature. Proteins were visualized with an ECLTM Prime Western Blotting System (GE Healthcare #RPN2232). The immunoblot was generated by ChemiDoc MP Imaging Systems (Bio-Rad) and analyzed by the ImageJ software. […]
As a control, the same experiment was repeated and analyzed by a western-blot assay (Figure 3B). The potency estimated from the Western blot assay was 1 µM (Figure 3C), which is consistent with the result from the ELISA assay. The “Hook effect” […]

MIF [2] = biological target: T1, MIF; test: MIF degradation in A549 cells, cell lysate-based ELISA; design: endogenous in cells; host or cells: A549 (ATCC CCL-185); conditions: 12 h, vs DMSO, mean±SD n=3

Structure (SMILES)	inhibition at 1 µM (A549 cell spheroids; Homo sapiens, A549, 1 μM, treated every three days, read-out: inhibition of growth of spheroid tumor volume) [%]	inhibition at 2 µM (A549 cell spheroids; Homo sapiens, A549, 2 μM, treated every three days, read-out: inhibition of growth of spheroid tumor volume) [%]	inhibition at 5 µM (A549 cell spheroids; Homo sapiens, A549, 5 μM, treated every three days, read-out: inhibition of growth of spheroid tumor volume) [%]	proportion of cells at the G2/M phase (A549 cells; 1 μM) [%]	proportion of cells at the G2/M phase (A549 cells; 2 μM) [%]	proportion of cells at the G2/M phase (A549 cells; 5 μM) [%]	Dmax (MIF [1]; A549, A549 cells, 12 h, western-blot, concentrations higher than 1 μM, read-out: maximal degradation (Dmax)) [%]	reduction of MIF protein levels within 3 hours (MIF [1]; A549 cells, 3 hours)	maximal degradation (Dmax) (MIF [1]; A549 cells, 12 h, western-blot, concentrations higher than 1 μM) [%]	DC50 (MIF [1]; A549 cells, 12 h, western-blot, read-out: DC50)	recovery of the MIF levels after 48 h (MIF [1]; A549 cells, 48 h)	MIF degradation after 6 h (MIF [1]; A549 cells, time course, 6 h) [%]	time of treatment after which MIF degradation becomes visible (MIF [1]; A549 cells, MD9 at 10 μM) [h]	degradation [%] 0.2 μM (MIF [2])	influence on spheroid tumor growth (A549 cell spheroids)	effect on the cell cycle (A549 cells; 5 μM)	effect on MIF level relative to control (MIF [1]; A549 cells, 12 hours, inactive control experiment)	rescue of MD9 mediated MIF degradation (MIF [1]; A549 cells, 2 hours pretreatment (1 100 µM, 3 50 µM, 4 50 µM, Bortezomib), then 10 µM MD9 12 h)	rescue of MD13 mediated MIF degradation (MIF [1]; A549 cells, co-treatment (Bortezomib) or 1 hour pretreatment (3, 4) with MD13)
O=C1CCC(N2C(=O)c3cccc(NCCCCCCCC(=O)Nc4ccc(N5Cc6ccc(O)cc6OC5=O)cc4)c3C2=O)C(=O)N1 (stereo not drawn) [MD13]	42	53	81	17	19	23	90 to 95	about 80%	> 90	~100 nM and < 100 nM	slight recovery	> 92	3	71% and 71±7%					
CN1C(=O)CCC(N2C(=O)c3cccc(NCCCCCCCC(=O)Nc4ccc(N5Cc6ccc(O)cc6OC5=O)cc4)c3C2=O)C1=O (stereo not drawn) [MD15]														not capable of inducing MIF degradation and n.s.	no significant influence	little or no effect	not able to reduce the MIF levels; also recorded: no effect on MIF protein level		
COc1ccc(N2Cc3ccc(O)cc3OC2=O)cc1OC [compound 3]															no significant influence			partial to complete rescue; also recorded: rescued	rescued MIF from degradation; also recorded: able to abolish the MD13 triggered degradation
